Common to all, as to type: biochemical
The target of experiment [1] is T1, PI3Kβ (Homo sapiens, UniProt P42338).
T1 construct: purchased Merck Millipore
Description: In vitro kinase inhibition assay for PI3K (ADP-Glo), PI3Kβ. The settings on record: for Fold Selectivity β/δ: ratio of IC50 PI3Kβ to IC50 PI3Kδ. As to the method: (§1) Tested compounds were dissolved in 100% DMSO, and obtained solutions were serially diluted in 1× reaction buffer. The recombinant kinase solution was diluted in a reaction mixture comprising 5× reaction buffer, respective compound solution (1 mM sodium diacetate 4,5-bisphosphate phosphatidylinositol (PIP2) solution in 40 mM Tris buffer), and water. In a 96-wells plate, 5 μL of compound solutions and 15 μL of the kinase solution in the reaction mixture were added per well. To initiate the interaction of chemical compounds to be tested with the enzyme, the plate was incubated for 10 min at a suitable temperature in a plate thermostat with orbital shaking at 600 rpm. Negative control wells contained all the above reagents except tested compound and kinase, and positive control wells contained all the above reagents except tested compounds. […] Subsequently, the plate was incubated for 1 h at 25 or 30 °C (depending on the PI3K isoform tested) in a plate thermostat with orbital shaking of the plate contents at 600 rpm. The reaction conditions are combined in the table below (Table 6).
(§2) Detection of ADP formed in the enzymatic reaction was then performed using ADP-Glo Kinase Assay™ (Promega, Madison, WI, USA). To the wells of a 96-well plate, 25 μL of ADP-Glo Reagent™ was added, and the plate was incubated for 40 min at 25 °C in a plate thermostat with orbital shaking at 600 rpm. Then 50 μL of Kinase Detection Reagent were added to each well, and the plate was incubated for 40 min at 25 °C in a plate thermostat with orbital shaking at 600 rpm. Once the incubation was complete, the luminescence intensity was measured using a Victor Light luminometer (Perkin Elmer, Inc., Waltham, MA, USA). IC50 values were determined based on luminescence intensity measured in wells containing tested compounds at different concentrations in relation to control wells. […] Each compound was tested at least in quadruplicates (4 wells) on two 96-well plates utilizing at least 4 wells for each control.
A general note: ADP-Glo first removes unused ATP, then detects ADP through luciferase.

Experiment [2] has as its target T2, PI3Kδ (Homo sapiens, UniProt O00329).
T2 construct: purchased Merck Millipore
Briefly: In vitro kinase inhibition assay for PI3K (ADP-Glo), PI3Kδ. The settings on record: recombinant kinase, mean of two independent experiments. The procedure:
as §1, §2

Experiment [3] concerns the target T3, PI3Kα (Homo sapiens, UniProt P42336).
T3 construct: purchased Carna Biosciences
Briefly: In vitro kinase inhibition assay for PI3K (ADP-Glo), PI3Kα. The settings on record: for IC50: recombinant kinase, ADP-Glo, mean of two independent experiments; for Fold Selectivity α/δ: ratio of IC50 PI3Kα to IC50 PI3Kδ. The procedure:
Tested compounds were dissolved in 100% DMSO, and obtained solutions were serially diluted in 1× reaction buffer. The recombinant kinase solution was diluted in a reaction mixture comprising 5× reaction buffer, respective compound solution (1 mM sodium diacetate 4,5-bisphosphate phosphatidylinositol (PIP2) solution in 40 mM Tris buffer), and water. In a 96-wells plate, 5 μL of compound solutions and 15 μL of the kinase solution in the reaction mixture were added per well. To initiate the interaction of chemical compounds to be tested with the enzyme, the plate was incubated for 10 min at a suitable temperature in a plate thermostat with orbital shaking at 600 rpm. Negative control wells contained all the above reagents except tested compound and kinase, and positive control wells contained all the above reagents except tested compounds. The enzymatic reaction was initiated by adding 5 μL of 150 μM ATP solution. Subsequently, the plate was incubated for 1 h at 25 or 30 °C (depending on the PI3K isoform tested) in a plate thermostat with orbital shaking of the plate contents at 600 rpm. The reaction conditions are combined in the table below (Table 6).
Detection of ADP formed in the enzymatic reaction was then performed using ADP-Glo Kinase Assay™ (Promega, Madison, WI, USA). To the wells of a 96-well plate, 25 μL of ADP-Glo Reagent™ was added, and the plate was incubated for 40 min at 25 °C in a plate thermostat with orbital shaking at 600 rpm. Then 50 μL of Kinase Detection Reagent were added to each well, and the plate was incubated for 40 min at 25 °C in a plate thermostat with orbital shaking at 600 rpm. Once the incubation was complete, the luminescence intensity was measured using a Victor Light luminometer (Perkin Elmer, Inc., Waltham, MA, USA). IC50 values were determined based on luminescence intensity measured in wells containing tested compounds at different concentrations in relation to control wells. These values were calculated with Graph Pad 5.03 software by fitting the curve using non-linear regression. Each compound was tested at least in quadruplicates (4 wells) on two 96-well plates utilizing at least 4 wells for each control. Averaged results of inhibition activity respective to specific isoforms of PI3K kinases for tested compounds are presented as IC50 values in Table 1, Table 2, Table 3 and Table 4.

Experiment [4] deals with T4, PI3Kγ (Homo sapiens, UniProt P48736).
T4 construct: purchased Merck Millipore
T4 sequence (P48736 whole entry): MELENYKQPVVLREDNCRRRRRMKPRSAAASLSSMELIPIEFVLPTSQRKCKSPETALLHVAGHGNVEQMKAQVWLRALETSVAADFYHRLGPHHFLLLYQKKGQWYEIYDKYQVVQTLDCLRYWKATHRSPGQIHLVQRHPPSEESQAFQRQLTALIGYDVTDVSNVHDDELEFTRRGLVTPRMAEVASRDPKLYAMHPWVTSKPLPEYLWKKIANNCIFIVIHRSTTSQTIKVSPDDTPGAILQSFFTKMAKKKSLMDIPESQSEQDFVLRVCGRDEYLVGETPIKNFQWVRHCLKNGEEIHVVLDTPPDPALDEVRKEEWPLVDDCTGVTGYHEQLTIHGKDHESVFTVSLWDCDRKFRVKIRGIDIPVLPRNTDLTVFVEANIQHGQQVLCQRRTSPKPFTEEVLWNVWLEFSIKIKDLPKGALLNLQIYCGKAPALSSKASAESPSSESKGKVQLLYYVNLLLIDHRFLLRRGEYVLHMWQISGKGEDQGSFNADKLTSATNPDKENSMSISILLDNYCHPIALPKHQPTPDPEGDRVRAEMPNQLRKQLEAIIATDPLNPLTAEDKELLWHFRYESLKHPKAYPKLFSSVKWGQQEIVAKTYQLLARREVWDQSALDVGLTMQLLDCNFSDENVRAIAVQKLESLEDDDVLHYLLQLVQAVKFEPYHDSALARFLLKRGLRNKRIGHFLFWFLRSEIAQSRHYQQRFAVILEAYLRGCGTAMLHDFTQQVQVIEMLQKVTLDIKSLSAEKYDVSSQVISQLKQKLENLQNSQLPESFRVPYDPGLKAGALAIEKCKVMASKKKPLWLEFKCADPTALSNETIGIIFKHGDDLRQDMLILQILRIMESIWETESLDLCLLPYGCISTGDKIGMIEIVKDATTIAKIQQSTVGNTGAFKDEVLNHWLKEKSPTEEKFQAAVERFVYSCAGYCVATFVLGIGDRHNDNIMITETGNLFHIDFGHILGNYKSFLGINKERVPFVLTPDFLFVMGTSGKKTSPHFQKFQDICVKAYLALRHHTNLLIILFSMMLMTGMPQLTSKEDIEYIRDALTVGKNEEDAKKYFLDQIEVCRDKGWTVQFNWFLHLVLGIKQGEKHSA
Briefly: In vitro kinase inhibition assay for PI3K (ADP-Glo), PI3Kγ. The procedure:
as §1, §2

Where [5] appears, read: recombinant kinase, ADP-Glo, mean of two independent experiments, read-out: IC50 PI3K β.

The structures appear in SMILES notation. Where “and” joins values, the source holds several entries; their conditions need not be identical. Equal entries are not always repeated. Where two headings read alike, the source gives them in different places.

T2 sequence (P27986 whole entry): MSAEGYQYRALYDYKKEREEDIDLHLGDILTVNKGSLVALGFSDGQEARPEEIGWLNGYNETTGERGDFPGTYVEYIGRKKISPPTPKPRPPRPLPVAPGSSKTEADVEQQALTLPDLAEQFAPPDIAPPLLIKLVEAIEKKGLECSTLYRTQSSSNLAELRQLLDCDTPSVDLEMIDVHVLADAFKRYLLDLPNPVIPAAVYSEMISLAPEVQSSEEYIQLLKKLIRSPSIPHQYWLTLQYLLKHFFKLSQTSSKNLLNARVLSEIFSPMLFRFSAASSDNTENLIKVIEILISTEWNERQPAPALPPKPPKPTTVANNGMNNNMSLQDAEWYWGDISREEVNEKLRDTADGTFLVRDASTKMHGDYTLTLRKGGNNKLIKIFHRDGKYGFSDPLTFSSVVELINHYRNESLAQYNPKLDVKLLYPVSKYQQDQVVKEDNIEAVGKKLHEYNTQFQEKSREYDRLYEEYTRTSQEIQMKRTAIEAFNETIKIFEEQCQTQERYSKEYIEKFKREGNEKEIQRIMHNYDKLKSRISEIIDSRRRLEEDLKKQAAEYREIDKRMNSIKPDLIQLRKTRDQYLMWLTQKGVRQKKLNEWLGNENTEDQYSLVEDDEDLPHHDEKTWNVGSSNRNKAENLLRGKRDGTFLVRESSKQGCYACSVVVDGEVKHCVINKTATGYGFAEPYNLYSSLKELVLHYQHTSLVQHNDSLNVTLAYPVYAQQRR
T2 sequence (O00329 whole entry): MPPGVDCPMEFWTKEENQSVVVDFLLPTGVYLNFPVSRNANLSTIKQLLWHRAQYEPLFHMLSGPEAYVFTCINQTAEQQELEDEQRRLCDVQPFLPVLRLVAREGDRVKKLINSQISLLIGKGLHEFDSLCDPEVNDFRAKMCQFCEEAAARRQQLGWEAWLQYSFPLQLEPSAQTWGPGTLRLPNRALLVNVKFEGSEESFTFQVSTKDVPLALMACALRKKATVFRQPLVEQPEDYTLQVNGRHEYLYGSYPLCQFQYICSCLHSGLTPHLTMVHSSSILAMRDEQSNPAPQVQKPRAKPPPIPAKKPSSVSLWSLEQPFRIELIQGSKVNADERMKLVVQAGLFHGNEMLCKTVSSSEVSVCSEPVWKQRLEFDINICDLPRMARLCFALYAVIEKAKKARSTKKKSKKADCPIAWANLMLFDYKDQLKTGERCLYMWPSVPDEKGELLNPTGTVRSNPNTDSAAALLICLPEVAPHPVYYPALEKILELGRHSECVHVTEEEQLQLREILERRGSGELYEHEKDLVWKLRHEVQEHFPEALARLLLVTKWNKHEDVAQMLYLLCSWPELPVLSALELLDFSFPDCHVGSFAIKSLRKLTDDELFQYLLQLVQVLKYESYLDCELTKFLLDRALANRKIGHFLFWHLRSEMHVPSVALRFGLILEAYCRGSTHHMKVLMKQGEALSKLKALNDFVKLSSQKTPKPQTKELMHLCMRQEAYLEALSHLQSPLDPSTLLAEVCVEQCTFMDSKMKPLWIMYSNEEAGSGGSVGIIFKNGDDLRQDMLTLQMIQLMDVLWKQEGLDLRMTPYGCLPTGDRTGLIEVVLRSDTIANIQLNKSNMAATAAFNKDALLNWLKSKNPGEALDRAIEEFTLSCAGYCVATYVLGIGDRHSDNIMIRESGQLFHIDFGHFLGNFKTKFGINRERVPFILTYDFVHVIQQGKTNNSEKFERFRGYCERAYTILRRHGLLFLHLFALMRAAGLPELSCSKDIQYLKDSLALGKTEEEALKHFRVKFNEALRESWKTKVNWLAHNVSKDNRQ
T3 sequence (P42336 whole entry): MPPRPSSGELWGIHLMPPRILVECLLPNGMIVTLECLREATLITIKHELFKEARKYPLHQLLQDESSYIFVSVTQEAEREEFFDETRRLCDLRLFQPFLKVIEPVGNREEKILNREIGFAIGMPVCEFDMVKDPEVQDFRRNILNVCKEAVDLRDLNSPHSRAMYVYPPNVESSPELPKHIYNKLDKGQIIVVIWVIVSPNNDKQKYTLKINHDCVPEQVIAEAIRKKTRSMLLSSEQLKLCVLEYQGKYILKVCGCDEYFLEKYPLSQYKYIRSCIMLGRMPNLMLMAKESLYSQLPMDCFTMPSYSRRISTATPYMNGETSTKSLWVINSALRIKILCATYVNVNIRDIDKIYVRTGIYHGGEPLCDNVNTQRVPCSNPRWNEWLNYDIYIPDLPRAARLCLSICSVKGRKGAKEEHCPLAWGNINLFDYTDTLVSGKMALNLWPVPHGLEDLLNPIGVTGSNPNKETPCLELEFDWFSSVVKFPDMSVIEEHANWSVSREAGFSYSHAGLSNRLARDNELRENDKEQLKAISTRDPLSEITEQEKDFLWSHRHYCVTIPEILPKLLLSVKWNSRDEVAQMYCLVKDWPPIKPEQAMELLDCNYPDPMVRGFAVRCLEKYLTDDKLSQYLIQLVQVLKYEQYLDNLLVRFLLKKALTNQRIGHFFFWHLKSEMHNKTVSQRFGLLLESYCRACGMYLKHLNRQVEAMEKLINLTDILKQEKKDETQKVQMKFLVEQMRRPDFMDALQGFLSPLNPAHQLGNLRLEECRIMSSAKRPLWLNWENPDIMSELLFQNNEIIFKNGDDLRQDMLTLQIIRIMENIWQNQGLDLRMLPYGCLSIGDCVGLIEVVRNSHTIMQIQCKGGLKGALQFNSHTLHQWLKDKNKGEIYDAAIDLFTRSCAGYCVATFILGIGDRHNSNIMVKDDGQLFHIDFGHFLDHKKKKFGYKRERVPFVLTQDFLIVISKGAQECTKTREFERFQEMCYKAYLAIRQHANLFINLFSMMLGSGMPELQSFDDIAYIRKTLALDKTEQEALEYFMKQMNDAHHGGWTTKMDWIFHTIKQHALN
T3 sequence (P27986 whole entry partner): as the sequence (P27986 whole entry) above
T1 sequence (P42338 whole entry): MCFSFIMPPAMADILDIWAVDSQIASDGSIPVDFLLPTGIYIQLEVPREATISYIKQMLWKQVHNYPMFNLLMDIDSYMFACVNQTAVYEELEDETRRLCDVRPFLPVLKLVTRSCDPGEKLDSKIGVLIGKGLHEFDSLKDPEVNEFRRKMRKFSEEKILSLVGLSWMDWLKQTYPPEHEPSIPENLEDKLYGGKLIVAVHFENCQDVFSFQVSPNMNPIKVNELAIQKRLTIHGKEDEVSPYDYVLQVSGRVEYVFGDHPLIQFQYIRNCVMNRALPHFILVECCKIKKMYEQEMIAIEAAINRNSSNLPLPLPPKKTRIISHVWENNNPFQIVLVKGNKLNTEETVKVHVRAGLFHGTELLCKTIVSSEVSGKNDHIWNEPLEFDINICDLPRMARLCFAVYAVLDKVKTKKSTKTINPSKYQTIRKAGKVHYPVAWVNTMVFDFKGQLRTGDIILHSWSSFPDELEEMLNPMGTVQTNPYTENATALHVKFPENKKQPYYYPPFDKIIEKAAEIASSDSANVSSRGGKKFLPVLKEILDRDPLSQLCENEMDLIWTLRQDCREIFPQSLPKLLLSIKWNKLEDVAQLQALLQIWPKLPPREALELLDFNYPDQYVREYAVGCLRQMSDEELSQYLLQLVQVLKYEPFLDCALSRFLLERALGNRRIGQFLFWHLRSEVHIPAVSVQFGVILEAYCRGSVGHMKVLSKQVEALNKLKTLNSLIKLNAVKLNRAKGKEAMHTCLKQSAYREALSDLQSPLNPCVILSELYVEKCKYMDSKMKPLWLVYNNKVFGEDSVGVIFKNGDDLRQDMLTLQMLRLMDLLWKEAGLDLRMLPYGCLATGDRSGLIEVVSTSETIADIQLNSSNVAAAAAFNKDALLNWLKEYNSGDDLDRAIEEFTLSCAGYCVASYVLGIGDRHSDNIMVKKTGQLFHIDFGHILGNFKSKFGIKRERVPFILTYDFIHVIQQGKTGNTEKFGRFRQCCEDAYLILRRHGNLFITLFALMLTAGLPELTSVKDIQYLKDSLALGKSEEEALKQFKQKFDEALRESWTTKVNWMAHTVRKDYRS
T1 sequence (P27986 whole entry, further chain): as the sequence (P27986 whole entry) above

For `CC(C)(O)C1CCN(Cc2cc3nc(-c4ccnc5[nH]ccc45)cc(N4CCOCC4)n3n2)CC1` [Compound 51, 2-((4-(2-hydroxypropan-2-yl)piperidin-1-yl)methyl)-5-(1H-pyrrolo [2,3-b]pyridin-4-yl)-7-(morpholin-4-yl)pyrazolo[1,5-a]pyrimidine], the “Fold Selectivity β/δ” value in experiment [1] was found to be 1165. In addition, the IC50 (commonly the concentration that inhibits the measured activity by half) in experiment [1] (setting [5]) came to 26.8 µM; in experiment [2] (read-out: IC50 PI3K δ), 0.023 µM; in experiment [3] (IC50 PI3K α) it was 9.75 µM. Also, in experiment [3], the “Fold Selectivity α/δ” value is reported as 424.
Regarding `CC(C)(C)N1CCN(Cc2cc3nc(-c4c(F)ccc5[nH]ccc45)cc(N4CCOCC4)n3n2)CC1` [Compound 53, 2-((4-tert-butylpiperazin-1-yl)methyl)-5-(5-fluoro-1H-indol-4-yl)-7-(morpholin-4-yl)pyrazolo[1,5-a]pyrimidine], the IC50 in experiment [1] is 19.5 µM; in experiment [2] (read-out: IC50 PI3K δ), 0.011 µM; in experiment [4] (recombinant kinase, ADP-Glo, mean of two independent experiments, read-out: IC50 PI3K γ), more than 60 µM; in experiment [3] (IC50 PI3K α), 19.3 µM. For the same compound, in experiment [1], the “Fold Selectivity β/δ” value is recorded as 1768. Further, the “Fold Selectivity γ/δ” value in experiment [4] (ratio of IC50 PI3Kγ to IC50 PI3Kδ) is given as more than 5455. Moreover, in experiment [3], the “Fold Selectivity α/δ” value worked out at 1754.
Regarding `CC(C)(O)C1CCN(Cc2cc3nc(-c4cncc5[nH]ccc45)cc(N4CCOCC4)n3n2)CC1` [Compound 50, 2-((4-(2-hydroxypropan-2-yl)piperidin-1-yl)methyl)-5-(1H-pyrrolo [2,3-c]pyridin-4-yl)-7-(morpholin-4-yl)pyrazolo[1,5-a]pyrimidine], the “Fold Selectivity β/δ” value in experiment [1] was 188. The half-inhibitory concentration (IC50) came out at 5.26 µM in experiment [1] (setting [5]), 0.028 µM in experiment [2] (read-out: IC50 PI3K δ) and 3.65 µM in experiment [3] (IC50 PI3K α). Also, in experiment [3], the “Fold Selectivity α/δ” value worked out at 130.
Take `Cc1cc2nc(-c3ccc(N)nc3)cc(N3CCOCC3)n2n1` [Compound 11, 2-methyl-7-(morpholin-4-yl)-5-(2-aminopyridin-5-yl)pyrazolo[1,5-a]pyrimidine]: the IC50 was 6.86 µM in experiment [2] (read-out: IC50 PI3Kδ) and 4.64 µM in experiment [3] (IC50 PI3Kα). Also, in experiment [3], the “Fold Selectivity α/δ” value is on record as 0.7.
For `COC(=O)C1CCN(Cc2cc3nc(-c4cccc5[nH]ccc45)cc(N4CCOCC4)n3n2)CC1` [Compound 35, Methyl 1-((5-(1H-indol-4-yl)-7-(morpholin-4-yl)pyrazolo[1,5-a]pyrimidin-2-yl)methyl)piperidin-4-carboxylate], the IC50 is 0.138 µM in experiment [2] (read-out: IC50 PI3K δ) and 8.46 µM in experiment [3] (IC50 PI3K α). Moreover, the “Fold Selectivity α/δ” value in experiment [3] was determined as 61.
Regarding `CC(C)(C)N1CCN(Cc2cc3nc(-c4ccnc5[nH]ccc45)cc(N4CCOCC4)n3n2)CC1` [Compound 55, 2-((4-tert-butylpiperazin-1-yl)methyl)-5-(1H-pyrrolo [2,3-b]pyridin-4-yl)-7-(morpholin-4-yl)pyrazolo[1,5-a]pyrimidine], the “Fold Selectivity β/δ” value in experiment [1] came out at 711. For the same compound, the IC50 was 32 µM in experiment [1] (setting [5]), 0.045 µM in experiment [2] (read-out: IC50 PI3K δ) and 2.96 µM in experiment [3] (IC50 PI3K α). In experiment [3], the “Fold Selectivity α/δ” value was determined as 66.
Turning to `COc1ccc(N2CCN(Cc3cc4nc(-c5cccc6[nH]ccc56)cc(N5CCOCC5)n4n3)CC2)cc1` [Compound 32, 5-(1H-indol-4-yl)-2-((4-(4-methoxyphenyl)piperazin-1-yl)-methyl)-7-(morpholin-4-yl)pyrazolo[1,5-a]pyrimidine], the half-inhibitory concentration (IC50) amounted to 0.177 µM in experiment [2] (read-out: IC50 PI3K δ) and 8.79 µM in experiment [3] (IC50 PI3K α). The “Fold Selectivity α/δ” value in experiment [3] was determined as 50.
With `Cc1cc2nc(-n3c(C(F)F)nc4ccccc43)cc(N3CCOCC3)n2n1` [Compound 7, 2-methyl-5-(2-difluoromethylbenzimidazol-1-yl)-7-(morpholin-4-yl)pyrazolo[1,5-a]pyrimidine], the concentration for half-maximal inhibition (IC50) in experiment [2] (read-out: IC50 PI3Kδ) is 0.47 µM and 0.475 µM; in experiment [3] (IC50 PI3Kα) it was 1.06 µM. Further, the “Fold Selectivity α/δ” value in experiment [3] was determined as 2.2.
For `CCNC(=O)NC1CCN(Cc2cc3nc(-c4cccc5[nH]ccc45)cc(N4CCOCC4)n3n2)CC1` [Compound 30, 3-ethyl-1-(1-((5-(1H-indol-4-yl)-7-(morpholin-4-yl)pyrazolo[1,5-a]pyrimidin-2-yl)methyl)piperidin-4-yl)urea], the 50% inhibitory concentration (IC50) is 0.36 µM in experiment [2] (read-out: IC50 PI3K δ) and 14.2 µM in experiment [3] (IC50 PI3K α). The “Fold Selectivity α/δ” value in experiment [3] amounted to 39.
Consider `c1cc(-c2cc(N3CCOCC3)n3nc(CN4CCN(C5CC5)CC4)cc3n2)c2cc[nH]c2c1` [Compound 39, 2-((4-cyclopropylpiperazin-1-yl)methyl)-5-(1H-indol-4-yl)-7-(morpholin-4-yl)pyrazolo[1,5-a]pyrimidine], for which, in experiment [1], the “Fold Selectivity β/δ” value turned out to be 259. In addition, the IC50 was determined as 15 µM in experiment [1] (setting [5]), 0.058 µM in experiment [2] (read-out: IC50 PI3K δ) and 25.3 µM in experiment [3] (IC50 PI3K α). In addition, the “Fold Selectivity α/δ” value in experiment [3] is reported as 436.
For the compound `Cc1cc2nc(-n3c(C)nc4ccccc43)cc(N3CCOCC3)n2n1` [Compound 5, 2-methyl-5-(2-methylbenzimidazol-1-yl)-7-(morpholin-4-yl)pyrazolo[1,5-a]pyrimidine], the IC50 worked out at 3.56 µM in experiment [2] (read-out: IC50 PI3Kδ) and 35.1 µM in experiment [3] (IC50 PI3Kα). In experiment [3], the “Fold Selectivity α/δ” value was found to be 9.9.
For the compound `c1cc(-c2cc(N3CCOCC3)n3nc(CN4CCN(C5CCCC5)CC4)cc3n2)c2cc[nH]c2c1` [Compound 40, 2-((4-cyclopentylpiperazin-1-yl)methyl)-5-(1H-indol-4-yl)-7-(morpholin-4-yl)pyrazolo[1,5-a]pyrimidine], the IC50 in experiment [2] (read-out: IC50 PI3K δ) was 0.042 µM; in experiment [3] (IC50 PI3K α), 13.8 µM. In addition, the “Fold Selectivity α/δ” value in experiment [3] is recorded as 329.
The matching figures for `CN1CCN(C2CCN(Cc3cc4nc(-c5cccc6[nH]ccc56)cc(N5CCOCC5)n4n3)CC2)CC1` [Compound 29, 5-(1H-indol-4-yl)-2-((4-(4-methylpiperazin-1-yl)piperidin-1-yl)methyl)-7-(morpholin-4-yl)pyrazolo[1,5-a]pyrimidine]: 0.052 µM, 15.6 µM and 301.
With `Cc1cc2nc(-c3cn[nH]c3)cc(N3CCOCC3)n2n1` [Compound 10, 2-methyl-7-(morpholin-4-yl)-5-(1H-pyrazol-4-yl)pyrazolo[1,5-a]pyrimidine], the half-maximal inhibitory concentration (IC50) worked out at 12.7 µM in experiment [2] (read-out: IC50 PI3Kδ) and 36.2 µM in experiment [3] (IC50 PI3Kα). Further, the “Fold Selectivity α/δ” value in experiment [3] is on record as 2.9.
The matching figures for `Cc1cc2nc(-c3cccc4[nH]ncc34)cc(N3CCOCC3)n2n1` [Compound 12, 2-methyl-7-(morpholin-4-yl)-5-(1H-indazole-4-yl)pyrazolo[1,5-a]pyrimidine]: 3.85 µM, 4.81 µM and 1.2.
In the case of `c1cc(-c2cc(N3CCOCC3)n3nc(CN4CCN(C5COC5)CC4)cc3n2)c2cc[nH]c2c1` [Compound 42], the IC50 in experiment [2] (read-out: IC50 PI3K δ) amounted to 0.056 µM; in experiment [3] (IC50 PI3K α), 18.7 µM. The “Fold Selectivity α/δ” value in experiment [3] is reported as 334.
